Test system: platelet aggregation
Assay: Platelet aggregation inhibitory activity (ADP-induced, human platelet rich plasma)
Assay type: cell-based
Conditions: Homo sapiens, Table 2, same manner as Example 17
Description: The blood was collected from the elbow vein of a normal volunteer with mixing thereof with 1/10 volume of 3.8% sodium citrate, and the blood was centrifuged at 1000 rpm (150 g) for 10 minutes to give the supernatant as platelet rich plasma (PRP). To PRP (200 μl) was added a test compound solution (2 μl), and the mixture was incubated with stirring at 1000 rpm at 37° C. for two minutes, and thereto was added a platelet aggregator, adenosine diphosphate (ADP, 22 μl) at a final concentration of 3 μg/ml. The platelet aggregation activity was determined by nephelometric analysis using a Hematracer (manufactured by Niko Bioscience, Ltd.). The test results of platelet aggregation inhibitory activity are expressed by IC50, which is a concentration of the test compound being required to inhibit the platelet aggregation reaction by 50%.
The compounds of Examples 18 to 70 were tested in the same manner as in Example 17.
The compounds of Examples 72 to 116 were tested in the same manner as in Example 17.

| IC50 [nM] | Structure (SMILES) |
| --- | --- |
| 185 | CC(C)(C)c1ccc(S(=O)(=O)N[C@@H](CNC(=O)CCNC(=O)CCC2CCNCC2)C(=O)O)cc1 [Example 39, (2S)-2-(4-t-butyl)benzenesulfonylamino-3-(3-(3-(4-piperidyl)propanoylamino)propanoylamino)propanoic Acid] |
| 25 | O=C(CCC1CCNCC1)NCCC(=O)NC[C@H](NS(=O)(=O)c1ccc(F)cc1)C(=O)O [Example 35, (2S)-2-(4-fluoro)benzenesulfonylamino-3-(3-(3-(4-piperidyl)propanoylamino)propanoylamino)propanoic Acid] |
| 203 | CC(C)c1ccc(S(=O)(=O)N[C@@H](CNC(=O)CCNC(=O)CCC2CCNCC2)C(=O)O)cc1 [Example 50, (2S)-2-(4-isopropyl)benzenesulfonylamino-3-(3-(3-(4-piperidyl)propanoylamino)propanoylamino)propanoic Acid] |
| 58 | O=C(CCC1CCNCC1)NCCC(=O)NC[C@H](NS(=O)(=O)c1cccc(C(F)(F)F)c1)C(=O)O [Example 28, (2S)-3-(3-(3-(4-piperidyl)propanoylamino)propanoylamino)-2-(3-trifluoromethyl)benzenesulfonylaminopropanoic Acid] |
| 15 | Cc1cc(C)c(S(=O)(=O)N[C@@H](CNC(=O)CCNC(=O)CCC2CCNCC2)C(=O)O)c(C)c1 [Example 33, (2S)-3-(3-(3-(4-piperidyl)propanoylamino)propanoylamino)-2-(2,4,6-trimethyl)benzenesulfonylaminopropanoic Acid] |
| 170 | O=C(CCC1CCNCC1)NCCC(=O)NC[C@H](NS(=O)(=O)c1ccc(C(F)(F)F)cc1)C(=O)O [Example 29, (2S)-3-(3-(3-(4-piperidyl)propanoylamino)propanoylamino)-2-(4-trifluoromethyl)benzenesulfonylaminopropanoic Acid] |
| 151 | O=C(CCC1CCNCC1)NCCC(=O)NC[C@H](NS(=O)(=O)c1ccc([N+](=O)[O-])cc1)C(=O)O [Example 32, (2S)-2-(4-nitro)benzenesulfonylamino-3-(3-(3-(4-piperidyl)propanoylamino)propanoylamino)propanoic Acid] |
| 79 | CCCCS(=O)(=O)N[C@@H](CNC(=O)CCCCOc1ccc(C(=N)N)cc1)C(=O)O [Example 65, (2S)-3-(5-(4-amidinophenoxy)pentanoylamino)-2-butanesulfonylaminopropanoicAcid] |
| 121 | CCCS(=O)(=O)N[C@@H](CNC(=O)CCNC(=O)CCC1CCNCC1)C(=O)O [Example 45, (2S)-3-(3-(3-(4-piperidyl)propanoylamino)propanoylamino)-2-propanesulfonylaminopropanoic Acid] |
| 111 | O=C(CCCC1CCNCC1)NCCC(=O)NC[C@H](NS(=O)(=O)c1ccccc1)C(=O)O [Example 53, (2S)-2-benzenesulfonylamino-3-(3-(4-(4-piperidyl)butanoylamino)propanoylamino)propanoic Acid] |
| 22 | Cc1cccc(S(=O)(=O)N[C@@H](CNC(=O)CCNC(=O)CCC2CCNCC2)C(=O)O)c1 [Example 25, (2S)-2-(3-methyl)benzenesulfonylamino-3-(3-(3-(4-piperidyl)propanoylamino)propanoylamino)propanoic Acid] |
| 79 | O=C(CCCC(=O)NC[C@H](NS(=O)(=O)c1ccccc1)C(=O)O)NCC1CCNCC1 [Example 54, (2S)-2-benzenesulfonylamino-3-(4-(4-piperidylmethylcarbamoyl)butanoylamino)propanoic Acid] |
| 48 | O=C(CCC1CCNCC1)NCCC(=O)NC[C@H](NS(=O)(=O)c1ccc(Br)cc1)C(=O)O [Example 37, (2S)-2-(4-bromo)benzenesulfonylamino-3-(3-(3-(4-piperidyl)propanoylamino)propanoylamino)propanoic Acid] |
| 57 | COc1ccc(S(=O)(=O)N[C@@H](CNC(=O)C2CCCN(C(=O)CCC3CCNCC3)C2)C(=O)O)cc1 (stereo partly drawn) [Example 70, (2S)-2-(4-methoxy)benzenesulfonylamino-3-(1-(3-(4-piperidyl)propanoyl)-3-piperidylcarbonylamino)propanoic Acid] |
| 238 | O=C(CCC1CCNCC1)NCCC(=O)NC[C@H](NS(=O)(=O)c1ccc(OC(F)(F)F)cc1)C(=O)O [Example 47, (2S)-3-(3-(3-(4-piperidyl)propanoylamino)propanoylamino)-2-(4-trifluoromethoxy)benzenesulfonylaminopropanoic Acid] |

| Structure (SMILES) | IC50 [nM] |
| --- | --- |
| CCCCOc1ccc(S(=O)(=O)N[C@@H](CNC(=O)CCNC(=O)CCC2CCNCC2)C(=O)O)cc1 [Example 48, (2S)-2-(4-butoxy)benzenesulfonylamino-3-(3-(3-(4-piperidyl)propanoylamino)propanoylamino)propanoic Acid] | 67 |

Same assay, conditions: Homo sapiens, Table 3, same manner as Example 17

| IC50 [nM] | Structure (SMILES) |
| --- | --- |
| 44 | N=C(N)c1ccc(CCCCC(=O)NC[C@H](NS(=O)(=O)c2cccc3ccccc23)C(=O)O)cc1 [Example 88, (2S)-3-(5-(4-amidinophenyl)pentanoylamino)-2-(1-naphthalene)sulfonylaminopropanoic Acid] |
| 51 | CCNC(=N)c1ccc(OCCCC(=O)NC[C@H](NS(=O)(=O)c2ccccc2)C(=O)O)cc1 [Example 108, (2S)-2-benzenesulfonylamino-3-(4-(4-(N-ethylamidino)phenoxy)butanoylamino)propanoic Acid] |
| 41 | N=C1NCCc2cc(OCCCC(=O)NC[C@H](NS(=O)(=O)c3ccccc3)C(=O)O)ccc21 [Example 111, (2S)-2-benzenesulfonylamino-3-(4-(6-(1-imino-1,2,3,4-tetrahydroisoquinolyl)oxy)butanoylamino)propanoic Acid] |
| 22 | N=C(N)c1ccc(OCCCC(=O)NC[C@H](NS(=O)(=O)c2ccccc2N)C(=O)O)cc1 [Example 84, (2S)-3-(4-(4-amidinophenoxy)butanoylamino)-2-(2-amino)benzenesulfonylaminopropanoic Acid] |
| 15 | N=C(N)c1ccc(CCCCC(=O)NC[C@H](NS(=O)(=O)c2ccccc2C(F)(F)F)C(=O)O)cc1 [Example 90, (2S)-3-(5-(4-amidinophenyl)pentanoylamino)-2-(2-trifluoromethyl)benzenesulfonylaminopropanoic Acid] |
| 35 | CC(=O)NNC(=N)c1ccc(C(=O)NCCC(=O)NC[C@H](NS(=O)(=O)c2ccccc2)C(=O)O)cc1 [Example 102, (2S)-2-benzenesulfonylamino-3-(3-(4-acetylhydrazinoiminobenzoylamino)propanoylamino)propanoic Acid] |
| 116 | N=C(NCc1ccccc1)c1ccc(C(=O)NCCC(=O)NC[C@H](NS(=O)(=O)c2ccccc2)C(=O)O)cc1 [Example 106, (2S)-2-benzenesulfonylamino-3-(3-(4-(N-benzylamidino)benzoylamino)propanoylamino)propanoic Acid] |
| 35 | NC(=O)c1ccc(C(=O)NCCC(=O)NC[C@H](NS(=O)(=O)c2ccccc2N)C(=O)O)cc1 [Example 114, (2S)-2-(2-amino)benzenesulfonylamino-3-(3-(4-carbamoylbenzoylamino)propanoylamino)propanoic Acid] |
| 49 | CCc1ccc(S(=O)(=O)N[C@@H](CNC(=O)CCN(C)C(=O)c2ccc(C(=N)N)cc2)C(=O)O)cc1 [Example 97, (2S)-3-(3-(4-amidinobenzoylmethylamino)propanoylamino)-2-(4-ethyl)benzenesulfonylaminopropanoic Acid] |
| 28 | CCCCCCNC(=N)c1ccc(C(=O)NCCC(=O)NC[C@H](NS(=O)(=O)c2ccccc2)C(=O)O)cc1 [Example 104, (2S)-2-benzenesulfonylamino-3-(3-(4-(N-n-hexylamidino)benzoylamino)propanoylamino)propanoic Acid] |

Same assay, conditions: Table 1, human PRP, ADP 3 μg/ml, 37° C.

| IC50 [nM] | Structure (SMILES) |
| --- | --- |
| 232 | O=C(CCC1CCNCC1)NCCC(=O)NC[C@H](NS(=O)(=O)Cc1ccccc1)C(=O)O [Example 10, (2S)-2-benzylsulfonylamino-3-(3-(3-(4-piperidyl)propanoylamino)propanoylamino)propanoic Acid] |
| 3630 | CCCCS(=O)(=O)N[C@H](CNC(=O)CCNC(=O)CCC1CCNCC1)C(=O)O [Example 9, (2R)-2-butanesulfonylamino-3-(3-(3-(4-piperidyl)propanoylamino)propanoylamino)propanoic Acid] |
| 1370 | CCCCS(=O)(=O)N[C@@H](CNC(=O)CNC(=O)CCCCC1CCNCC1)C(=O)O [Example 12, (2S)-2-butanesulfonylamino-3-(N-(5-(4-piperidyl)pentanoyl)glycylamino)propanoic Acid] |
| 6140 | CCCCS(=O)(=O)N[C@@H](CNC(=O)CNC(=O)[C@H](Cc1ccc(OC)cc1)NC(=O)CCC1CCNCC1)C(=O)O [Example 14, (2S)-2-butanesulfonylamino-3-(N-(3-(4-piperidyl)propanoyl)-O-methyl-L-tyrosylglycylamino)propanoic Acid] |
| 162 | CCCCS(=O)(=O)N[C@@H](CNC(=O)CCNC(=O)CCC1CCNCC1)C(=O)O [Example 3, (2S)-2-butanesulfonylamino-3-(3-(3-(4-piperidyl)propanoylamino)propanoylamino)propanoic Acid] |
| 8730 | CCCCC(=O)N[C@@H](CNC(=O)CCNC(=O)CCC1CCNCC1)C(=O)O [Example 11, (2S)-2-pentanoylamino-3-(3-(3-(4-piperidyl)propanoylamino)propanoylamino)propanoic Acid] |
| 513 | O=C(CCC1CCNCC1)NCCC(=O)NC[C@H](NC(=O)OCc1ccccc1)C(=O)O [Example 4, (2S)-2-Benzyloxycarbonylamino-3-(3-(3-(4-piperidyl)propanoylamino)propanoylamino)propanoic Acid] |

Source: US6048854A, “2,3-diaminopropionic acid derivative” (Sumitomo Pharmaceuticals Company, Limited, priority 1993, dated 2000)
